Data: patent US9956267B2, “Method of treating skeletal dysplasias using vessel dilator” (University of South Florida, priority 2010, dated 2018)
Several values for one entry are separate records, joined by “and”; a condition that tells them apart may be missing. Equal values may be shown once. Positions of bridges follow the written chain, without caps; N, C: chain ends. No end group written: not given here.

How the values were obtained:
ERK 1/2 kinases [1] = details: ATDC5 cells, mouse chondrogenic cell line; cited from earlier work
[2] = in vivo; cited from earlier work
[3] = system: human osteoblast cells (ATCC number CRL-11372); test: Cell Titer 96 Aqueous One Solution (MTS) cell proliferation assay of human osteoblasts; type: cell-based; details: for enhancement of human osteoblast proliferation compared with controls: absorbance at 490 nm at day 7
Experimental: A cell line (ATCC number CRL-11372) of human osteoblast cells was purchased from the American Type Culture […] (ATCC, Manassas, Va.). Propagation of the human osteoblast cells was in a 1:1 mixture of Ham's F12 Medium and Dulbecco's Modified Eagles Medium (DMEM) with 2.5 mM L-glutamine without phenol red. Base medium was supplemented with 0.3 mg/mL of Geneticin (G418) antibiotic and 10% fetal bovine serum (Harris S A, et al. 1995 Developmental and characterization of a conditionally immortalized human fetal osteoblastic cell line. J Bone Miner Res 10:178-186). Cells were incubated at a temperature of 34° C. in 5% CO2 at which they have rapid cell division, doubling every 36 hours (Harris S A, et al. 1995 Developmental and characterization of a conditionally immortalized human fetal osteoblastic cell line. J Bone Miner Res 10:178-186). […] Cells were dispensed into new flasks with subculturing every 6-8 days. The medium was changed every 3 days.
After the osteoblast cells were subcultured for 24 h, ˜5000 cells in 200 μL of the above media were then seeded (day 1) into 96-well plates (Nuclon, Roskilde, Denmark). After overnight incubation at 34° C. in 5% CO2, the media was removed (day 2), and 50 μL of fresh media was added to control wells, blank wells (with no cells inside), and 50 μL of media with 10 picomolar (pM), 100 pM, 1 nanomolar (nM), or 10 nM of CNP or vessel dilator. At day 5, in these experiments, 50 μL of fresh media was added to the controls, blank wells, and 50 μL of media with 1 nM, 10 nM, 10 pM, and 100 pM of the respective natriuretic hormones for a total volume of 100 μL of media in each well. At day 7, 20 μL of Cell Titer 96® Aqueous One Solution (Promega Corporation, Madison, Wis.) was added to each well containing 1004 of medium and allowed to incubate for 4 h in 5% CO2 atmosphere before recording absorbance at 490 nm with a 96-well plate reader (Cory A H, et al. 1991 Use of aqueous soluble tetrazolium/formazan assay for growth assays in culture. Cancer Commun 3:207-212). There were 15 observations of vessel dilator at each concentration and 16 observations of CNP at each concentration. The peptide hormones used in this investigation were from Phoenix Pharmaceuticals, Inc., Burlingame, Calif.
Cell proliferation of human osteoblasts was examined with the Cell Titer 96 Aqueous One Solution cell proliferation assay (Promega Corp.). This colorimetric method determines the viable cells' proliferation by recording the absorption at 490 nm with a 96-well plate reader (Cory A H, et al. 1991 Use of aqueous soluble tetrazolium/formazan assay for growth assays in culture. Cancer Commun 3:207-212) after incubating the respective cells at 37° C. for 4 h in a 5% CO2 atmosphere.
Approximately 5000 human osteoblast cells were in each well. The proliferation assay detects the number of viable cells in proliferation using a tetrazolium compound (3-[4,5-dimethylthiazol-2-yl]-5-[3-carboxymethoxyphenyl]-2-[4-sulfophenyl]-2H-tetrazolium, inner salt; MTS) and an electron coupling reagent [phenazine ethosulfate (PES)]. PES has enhanced chemical stability, which allows it to be combined with MTS to form a stable solution (Cory A H, et al. 1991 Use of aqueous soluble tetrazolium/formazan assay for growth assays in culture. Cancer Commun 3:207-212). The MTS tetrazolium compound (Owen's reagent) is bioreduced by living cells into a colored formazan product that is measurable at […] in a spectrophotometer, thereby eliminating any nonviable (i.e. dead) cells that would not be proliferating (Cory A H, et al. 1991 Use of aqueous soluble tetrazolium/formazan assay for growth assays in culture. Cancer Commun 3:207-212). This method measure only viable cells' proliferation as dead cells are unable to reduce the MTS tetrazolium compound to a colored formazan product.
All data are expressed as mean±SEM. Statistical significance was determined by the Mann-Whitney test (also called Wilcoxon rank-sum test) for different sample sizes. […]

[4] = system: cyclic GMP (cGMP) in chondrocytes; details: CNP versus ANP; cited from earlier work
[5] = circulatory half-life of natriuretic peptides; type: in vivo, human; details: vessel dilator versus CNP
Experimental: (§1) CNP and ANP are ring-structured natriuretic peptides with very short half-lives of <3 min in the circulation (Kalra P R, et al. 2001 The role of C-natriuretic peptide in cardiovascular medicine. Eur Heart J 22:997-1007, Teixeira C C, et al. 2008 Nitric oxide, C-type natriuretic peptide and cGMP as regulators of endochondral ossification. Dev Biol 319:171-178; Nakao K, et al. 1986 The pharmacokinetics of α-human natriuretic polypeptide in healthy subjects. Eur J Clin Pharmacol 31:101-103; Yandle T G, et al. 1986 Metabolic clearance rate and plasma half life of alpha-human atrial natriuretic peptide in man. Life Sci 38:1827-1833). Their biologic effects last for <30 min. […] J Pharmacol Exp Ther 282:603-608) and its biologic effects last >6 h (Vesely D L, et al. 1994 Three peptides from the atrial natriuretic factor prohormone amino terminus lower blood pressure and produce diuresis, natriuresis, and/or kaliuresis in humans. Circulation 90:1129-1140).
(§2) The gene for CNP is expressed in bone (Mericq V, et al. 2000 Regulation of fetal rat bone growth by C-type natriuretic peptide and cGMP. Pediatr Res 47:189-193) to allow it to be an autocrine/paracrine regulator of bone. […] Life Sci 38:1827-1833; Ackerman B H, et al. 1997 Disposition of vessel dilator and long-acting natriuretic peptide in healthy humans after a one-hour infusion. […]

[6] = duration of biologic effects of natriuretic peptides; type: in vivo, human; details: versus CNP
Experimental: as §1, §2

MEK 1/2 kinases = details: proliferating prostate cancer cells; cited from earlier work
ERK 1/2 kinases [7] = details: cited from earlier work
[8] = in vivo; cited from earlier work; remark: listed apart in the source

Nc1nc2c(nc(Br)n2[C@@H]2O[C@@H]3COP(=O)(O)O[C@H]3[C@H]2O)c(=O)[nH]1 [8-bromo cGMP]
effect on mitogen- (fibroblast growth factor) stimulated ERK 1/2 kinases' phosphorylation (ERK 1/2 kinases [1]): inhibit

BNP: natriuretic peptide named with CNP and ANP, biologic effects less than 30 minutes [reference compound]
duration of biologic effects [2]: less than 30 min

CNP: 22 amino acid peptide having a 17-amino acid ring, generated from the natriuretic peptide precursor C gene (GLSKGCFGLKLDRIGSMSGLGC; disulfide 6-22 (inferred); UniProt P23582 105-126, looked up) [reference compound]
enhancement of human osteoblast proliferation compared with controls ([3]; 10 pM peptide): no significant enhancement | enhancement of human osteoblast proliferation compared with controls ([3]; 10 nM peptide): 27% | effect on mitogen- (fibroblast growth factor) stimulated ERK 1/2 kinases' phosphorylation (ERK 1/2 kinases [1]): inhibit | stimulation of cGMP in chondrocytes relative to ANP [4]: 10 fold

Vessel dilator: linear natriuretic peptide synthesized by the ANP gene; cardiac hormone, molecular weight 3878.31 (EVVPPQVLSEPNEEAGAALSPLPEVPPWTGEVSPAQR; Vessel dilator; UniProt P01160 56-92, looked up)
enhancement of human osteoblast proliferation compared with controls ([3]; 10 pM peptide): 8% | enhancement of human osteoblast proliferation compared with controls ([3]; 100 pM peptide): 7% | enhancement of human osteoblast proliferation compared with controls ([3]; 1 nM peptide): 6% | enhancement of human osteoblast proliferation compared with controls ([3]; 10 nM peptide): 8% | stimulates osteoblasts at lower concentrations than CNP ([3]; compared with CNP): 1000 | circulating half-life longer than CNP [5]: 36 fold | biologic effects longer than CNP, ANP or BNP [6]: 12 times and > 12 times | duration of biologic effects [2]: > 6 h | inhibition of activation, i.e. phosphorylation, of MEK 1/2 kinases (MEK 1/2 kinases): 98% | effect on mitogen (epidermal growth factor, EGF) stimulation of ERK 1/2 kinases (ERK 1/2 kinases [7]; EGF stimulation): completely blocks | inhibition of the phosphorylation of basal activity of ERK 1/2 kinases (ERK 1/2 kinases [7]; proliferating cells, basal activity): 96% | circulatory half-life [8]: 1.78 h | duration of biologic effect [8]: > 6 h
